Some test systems named below: HCC-2998 colon; HOP-62 NSCLC; SF-268 CNS; NCI-H460 lung; ACHN renal; SK-OV-3 ovarian; MCF7 breast; U251 CNS; HOP-92 NSCLC; SK-MEL-2 melanoma.
Common to all, as to test: NCI anticancer screen, dose series, 48 h

Values joined by “and” are separate entries in the source; they are usually repeats but may differ in a detail not shown here. Equal entries are not always repeated.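 Five compound concentrations were applied to cells in 96-well plates for 48 hours; endpoints were derived by simple linear interpolation of the resulting dose-response curve. Here, GI50 denotes the concentration required for 50% inhibition of growth. The concentration for full growth arrest is given as TGI.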

As for `COc1ccc(-c2cc(=O)c3cc(OC)c(OC)cc3[nH]2)cc1OC`, the TGI in the experiment with HCC-2998 colon, with HOP-62 NSCLC, in the experiment with SF-268 CNS, in the experiment on NCI-H460 lung, in the experiment with ACHN renal and in the experiment with SK-OV-3 ovarian was over 100 µM in each case. The TGI with MCF7 breast, with U251 CNS and with HOP-92 NSCLC was over 100 µM each time.

Regarding `COC1=C(C)C(=O)C2=C(C1=O)C1C3CC4=C(C(=O)C(OC)=C(C)C4=O)C(CNC(=O)C(C)=O)N3C(C#N)C(C2)N1C` (configuration not stated), the GI50 with HCC-2998 colon was 0.000219 µM; in the experiment with ACHN renal, 0.00366 µM; in the experiment on SK-OV-3 ovarian it was 0.00656 µM and 0.0382 µM; in the experiment with MCF7 breast, 0.0742 nM. Also, the TGI was 0.0318 µM and 0.211 µM and 0.151 µM with NCI-H460 lung; 1.16 µM and 1.23 µM with ACHN renal; 0.417 µM and 1.55 µM in the experiment on SK-OV-3 ovarian; 0.359 µM and 0.379 µM with MCF7 breast; 0.00425 µM and 0.0162 µM in the experiment with HOP-92 NSCLC.

For `N=c1sc(N2CCOCC2)nn1CC(=O)c1ccccc1`, the TGI with SK-MEL-2 melanoma, in the experiment on HCC-2998 colon, in the experiment on HOP-62 NSCLC, in the experiment with SF-268 CNS, with NCI-H460 lung and with ACHN renal was over 100 µM in each case. Further, the TGI in the experiment on SK-OV-3 ovarian, with MCF7 breast and in the experiment on U251 CNS was over 100 µM each time.

For the molecule `CO[C@@H](c1ccccc1)[C@H](O)[C@@](O)(c1ccccc1)P(=O)(OC)OC`, the TGI in the experiment with SK-MEL-2 melanoma, with SF-268 CNS, with NCI-H460 lung, with ACHN renal, in the experiment with SK-OV-3 ovarian and in the experiment on MCF7 breast was over 100 µM each time. In addition, the TGI in the experiment on U251 CNS and in the experiment with HOP-92 NSCLC was over 100 µM throughout.

Turning to `CC(C)=C[C@@H]1C[C@H](C)[C@H]2CC[C@H](C)[C@H]3C(=O)C(O)=C(C)C(=O)[C@]123`, the TGI with HCC-2998 colon, in the experiment with HOP-62 NSCLC, in the experiment with SF-268 CNS, in the experiment with NCI-H460 lung, with ACHN renal and in the experiment on SK-OV-3 ovarian was over 100 µM throughout. The TGI with MCF7 breast, in the experiment on U251 CNS and in the experiment with HOP-92 NSCLC was over 100 µM each time.

For `CNc1nc(OC)c2c(n1)[n+](C)cn2C`, the TGI in the experiment with SK-MEL-2 melanoma, with HOP-62 NSCLC, in the experiment on SF-268 CNS, with NCI-H460 lung, in the experiment with ACHN renal and with SK-OV-3 ovarian was over 100 µM throughout. Further, the TGI in the experiment with U251 CNS and in the experiment on HOP-92 NSCLC was over 100 µM each time.

`CN(C)c1ccc(/C=C2\CCCCCC2=O)cc1`: the TGI with SK-MEL-2 melanoma, in the experiment with HCC-2998 colon, in the experiment with HOP-62 NSCLC, in the experiment on SF-268 CNS, in the experiment on NCI-H460 lung and with ACHN renal was over 100 µM in each case. The TGI in the experiment with SK-OV-3 ovarian and in the experiment on MCF7 breast was over 100 µM throughout.

As for `O=CC12CCCN1CCC2`, the TGI in the experiment with SK-MEL-2 melanoma, with HCC-2998 colon, with HOP-62 NSCLC, in the experiment on NCI-H460 lung, with ACHN renal and in the experiment on SK-OV-3 ovarian was over 100 µM each time. The molecule also yielded a TGI in the experiment on U251 CNS of over 100 µM.

Regarding `Cc1ccc(C)c(C(=O)CC2OC(O)C(Cl)C2Cl)c1` (configuration not stated), the TGI with SK-MEL-2 melanoma, with HCC-2998 colon, in the experiment with HOP-62 NSCLC, with SF-268 CNS, in the experiment with NCI-H460 lung and in the experiment on ACHN renal was over 100 µM each time. Also, the TGI in the experiment on SK-OV-3 ovarian was over 100 µM; with U251 CNS, over 100 µM; in the experiment with HOP-92 NSCLC it was 77.3 µM.

Regarding `C/C(=C\CNc1ncnc2c1ncn2CCC#N)CO`, the TGI in the experiment with HCC-2998 colon, in the experiment with HOP-62 NSCLC, in the experiment on SF-268 CNS, with NCI-H460 lung, with ACHN renal and in the experiment with SK-OV-3 ovarian was over 100 µM in each case. The TGI in the experiment with MCF7 breast and in the experiment with HOP-92 NSCLC was over 100 µM each time.

Take `O=C1Cc2c([nH]c3c(Br)cccc23)-c2ccccc2N1`: the TGI with SK-MEL-2 melanoma, with HCC-2998 colon, with HOP-62 NSCLC, in the experiment with SF-268 CNS, in the experiment on NCI-H460 lung and with ACHN renal was over 100 µM throughout. Besides, the TGI in the experiment on SK-OV-3 ovarian, with MCF7 breast and in the experiment with U251 CNS was over 100 µM each time.

For `COc1ccc(OC)c2c(Nc3ccc(S(=O)(=O)O)c4cc(S(=O)(=O)O)cc(S(=O)(=O)O)c34)cc(C)nc12`, the TGI in the experiment on SK-MEL-2 melanoma, in the experiment on HCC-2998 colon, with HOP-62 NSCLC, with SF-268 CNS, in the experiment with NCI-H460 lung and in the experiment with ACHN renal was over 100 µM throughout. Further, the TGI in the experiment with SK-OV-3 ovarian, with MCF7 breast and in the experiment on U251 CNS was over 100 µM each time.

Regarding `Cc1cc(NS(=O)(=O)c2ccc(NC(NC(=O)OC(C)C)(C(F)(F)F)C(F)(F)F)cc2)nc(C)n1`, the TGI in the experiment on HCC-2998 colon, with HOP-62 NSCLC, with SF-268 CNS, in the experiment on NCI-H460 lung, in the experiment with ACHN renal and in the experiment on SK-OV-3 ovarian was over 100 µM in each case. For the same molecule, the TGI in the experiment with MCF7 breast, with U251 CNS and with HOP-92 NSCLC was over 100 µM each time.

Take `COc1ccc(Sc2ccccc2[N+](=O)[O-])cc1`: the TGI with SK-MEL-2 melanoma is over 100 µM; with HCC-2998 colon, 62.1 µM; in the experiment on HOP-62 NSCLC, over 100 µM; with SF-268 CNS, over 100 µM; in the experiment on NCI-H460 lung it was over 100 µM; with SK-OV-3 ovarian, over 100 µM. Further, the TGI in the experiment on U251 CNS is 41.3 µM; in the experiment with HOP-92 NSCLC, over 100 µM.

Regarding `O=C(C[N+]1(c2ccccc2)CCOCC1)c1ccccc1`, the TGI in the experiment on SK-MEL-2 melanoma, in the experiment with HCC-2998 colon, in the experiment on HOP-62 NSCLC, with SF-268 CNS, in the experiment on NCI-H460 lung and with ACHN renal was over 100 µM throughout. In addition, the TGI in the experiment with U251 CNS and in the experiment on HOP-92 NSCLC was over 100 µM in each case.

The record behind these values is PubChem BioAssay (NCI).
